Experimental findings from patent US8461358B2, “Fluorescent probe for measuring protease” (The University of Tokyo, priority 2009, dated 2013) are described below.

The assay deals with T1, leucine aminopeptidase, LAP (Sus scrofa, UniProt P15145).
T1 construct: purchased SIGMA L5006-25UN; host or cells: porcine kidney (tissue-derived)
T1 sequence (P15145 1-963): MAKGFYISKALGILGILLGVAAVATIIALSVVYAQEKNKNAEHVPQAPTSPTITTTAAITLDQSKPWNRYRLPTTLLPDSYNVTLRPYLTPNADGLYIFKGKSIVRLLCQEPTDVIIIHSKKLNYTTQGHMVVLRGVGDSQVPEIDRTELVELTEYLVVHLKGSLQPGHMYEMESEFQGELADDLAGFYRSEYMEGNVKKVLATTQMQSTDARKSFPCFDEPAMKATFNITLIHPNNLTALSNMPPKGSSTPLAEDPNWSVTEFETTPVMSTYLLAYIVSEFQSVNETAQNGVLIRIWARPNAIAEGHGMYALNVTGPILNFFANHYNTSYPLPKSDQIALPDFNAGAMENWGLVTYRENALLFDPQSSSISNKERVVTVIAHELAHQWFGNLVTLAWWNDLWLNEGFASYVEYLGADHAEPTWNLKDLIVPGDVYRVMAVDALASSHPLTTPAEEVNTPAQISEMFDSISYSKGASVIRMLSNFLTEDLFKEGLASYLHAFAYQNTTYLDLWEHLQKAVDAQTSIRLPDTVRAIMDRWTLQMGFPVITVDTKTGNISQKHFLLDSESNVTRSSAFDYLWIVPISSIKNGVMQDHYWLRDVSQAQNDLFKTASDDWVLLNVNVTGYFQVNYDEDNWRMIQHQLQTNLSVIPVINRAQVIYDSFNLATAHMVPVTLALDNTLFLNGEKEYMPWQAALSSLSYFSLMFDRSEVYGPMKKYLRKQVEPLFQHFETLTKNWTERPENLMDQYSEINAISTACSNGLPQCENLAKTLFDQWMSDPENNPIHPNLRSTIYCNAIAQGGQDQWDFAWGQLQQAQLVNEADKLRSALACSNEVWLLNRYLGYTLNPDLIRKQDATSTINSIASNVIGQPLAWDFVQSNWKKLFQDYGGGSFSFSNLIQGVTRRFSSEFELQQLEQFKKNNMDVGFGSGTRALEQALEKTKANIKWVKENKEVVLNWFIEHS
Put plainly: Enzymatic reaction of probe with leucine aminopeptidase, fluorescence/absorption readout. Type of assay: biochemical, porcine. To be noted: 5 μM compound. As for the experimental part: Compound (2) (Leu-RhoHM) and Compound (3) (γGlu-RhoHM) formed by bonding acyl residues derived from leucine and glutamic acid to one amino group of Compound (1) (RhoHM), respectively, were each dissolved in a neutral phosphate buffer, and reacted with a protease (leucine aminopeptidase, LAP, porcine kidney, SIGMA L5006-25UN) and γ-glutamyl transpeptidase (GGT, equine kidney, SIGMA G9270-100UN). Specifically, 3 μL of a […] solution of each compound in dimethyl sulfoxide (DMSO) was dissolved in 3 mL of a 0.1 M sodium phosphate buffer (pH 7.4) at a final concentration of 5 μM, and each of LAP (0.15 U) and GGT (1.1 U) was added to the solution to allow an enzymatic reaction at 37° C. The excitation wavelength was 501 nm.
Further, each of the DMSO solutions of both compounds (5 mM) in a volume of 3 μL was dissolved in 3 mL of a 0.1 M sodium phosphate buffer (pH 7.4) at a final concentration of 5 μM, and the enzymatic reaction was performed at 37° C. The values of fluorescence intensity observed with each amount of the enzymes 1 minute (Leu-RhoHM) or 9 minutes (γGlu-RhoHM) after the addition of the enzyme were plotted. The excitation wavelength was 501 nm, and the fluorescence emission wavelength was 524 nm.
Enzyme specificity of Compounds (2) and (3) was examined. Each of the DMSO solutions (3 μL) was dissolved in 3 mL of a 0.1 M sodium phosphate buffer (pH 7.4) at a final concentration of 5 μM, and LAP (0.4 U) was added to the solution to perform the enzymatic reaction at 37° C.

Regarding `CC(C)C[C@H](N)C(=O)Nc1ccc2c(c1)Oc1cc(N)ccc1C21OCc2ccccc21` (stereo partly drawn) [Compound (2)], the “change of absorption and fluorescence intensity on reaction with LAP” value (0.1 M sodium phosphate buffer pH 7.4, LAP 0.15 U, 37° C., excitation 501 nm) is “prompt marked increase of absorption and fluorescence intensity”. Further, the “change of fluorescence intensity after reaction with LAP (enzyme specificity)” value (0.1 M sodium phosphate buffer pH 7.4, LAP 0.4 U, 37° C.) is given as “marked increase of fluorescence intensity”. For the same compound, where the note is “pH 7.4, 37° C., 1 minute after addition of the enzyme, excitation 501 nm, emission 524 nm”, the “fluorescence intensity versus added LAP amount” value is “linear increase of fluorescence intensity”.
